Test results published in ChEMBL document CHEMBL5385860, “Antiproliferative, antiangiogenic and apoptotic effect of new hybrids of quinazoline-4(3H)-ones and sulfachloropyridazine” (Eur J Med Chem, 2023).

Assays:
[1] = test system: HCT-116; assay: cells; details: Homo sapiens, HCT-116, 24 h
[2] = test system: CAKI-1; assay: Cytotoxicity against human CAKI-1 cells assessed as growth inhibition at 10 uM relative to control; assay type: functional; details: read-out: GI
[3] = test system: UO-31; assay: Cytotoxicity against human UO-31 cells assessed as growth inhibition at 10 uM relative to control; assay type: functional; details: read-out: GI
[4] = test system: M14; assay: cells; details: Homo sapiens, M14, 24 h
[5] = test system: NCI-H522; assay: Cytotoxicity against human NCI-H522 cells assessed as growth inhibition at 10 uM relative to control; assay type: functional; details: read-out: GI
[6] = test system: 786-0; assay: Cytotoxicity against human 786-0 cells assessed as growth inhibition at 10 uM relative to control; assay type: functional; details: read-out: GI
[7] = test system: M14; assay: Cytotoxicity against human M14 cells assessed as growth inhibition at 10 uM relative to control; assay type: functional; details: read-out: GI
[8] = test system: A498; assay: Cytotoxicity against human A498 cells assessed as growth inhibition at 10 uM relative to control; assay type: functional; details: read-out: GI
[9] = test system: HCT-116; assay: Cytotoxicity against human HCT-116 cells assessed as growth inhibition at 10 uM relative to control; assay type: functional; details: read-out: GI
[10] = test system: SNB-75; assay: Cytotoxicity against human SNB-75 cells assessed as growth inhibition at 10 uM relative to control; assay type: functional; details: read-out: GI
[11] = test system: Hs-578T; assay: Cytotoxicity against human Hs-578T cells assessed as growth inhibition at 10 uM relative to control; assay type: functional; details: read-out: GI
[12] = test system: MDA-MB-468; assay: Cytotoxicity against human MDA-MB-468 cells assessed as growth inhibition at 10 uM relative to control; assay type: functional; details: read-out: GI
[13] = test system: HOP-92; assay: Cytotoxicity against human HOP-92 cells assessed as growth inhibition at 10 uM relative to control; assay type: functional; details: read-out: GI
[14] = test system: UACC-62; assay: Cytotoxicity against human UACC-62 cells assessed as growth inhibition at 10 uM relative to control; assay type: functional; details: read-out: GI
[15] = test system: BT-549; assay: Cytotoxicity against human BT-549 cells assessed as growth inhibition at 10 uM relative to control; assay type: functional; details: read-out: GI
[16] = test system: LOX IMVI; assay: Cytotoxicity against human LOX IMVI cells assessed as growth inhibition at 10 uM relative to control; assay type: functional; details: read-out: GI
[17] = test system: MCF7; assay: Cytotoxicity against human MCF7 cells assessed as growth inhibition at 10 uM relative to control; assay type: functional; details: read-out: GI
[18] = test system: SR; assay: Cytotoxicity against human SR cells assessed as growth inhibition at 10 uM relative to control; assay type: functional; details: read-out: GI
[19] = test system: K562; assay: Cytotoxicity against human K562 cells assessed as growth inhibition at 10 uM relative to control; assay type: functional; details: read-out: GI
[20] = biological target: Vascular endothelial growth factor receptor 2 (Homo sapiens, UniProt P35968); assay: Inhibition of recombinant VEGFR2 (unknown origin) by kinase glo detection reagent based assay
Sequence of Vascular endothelial growth factor receptor 2 (P35968 whole entry): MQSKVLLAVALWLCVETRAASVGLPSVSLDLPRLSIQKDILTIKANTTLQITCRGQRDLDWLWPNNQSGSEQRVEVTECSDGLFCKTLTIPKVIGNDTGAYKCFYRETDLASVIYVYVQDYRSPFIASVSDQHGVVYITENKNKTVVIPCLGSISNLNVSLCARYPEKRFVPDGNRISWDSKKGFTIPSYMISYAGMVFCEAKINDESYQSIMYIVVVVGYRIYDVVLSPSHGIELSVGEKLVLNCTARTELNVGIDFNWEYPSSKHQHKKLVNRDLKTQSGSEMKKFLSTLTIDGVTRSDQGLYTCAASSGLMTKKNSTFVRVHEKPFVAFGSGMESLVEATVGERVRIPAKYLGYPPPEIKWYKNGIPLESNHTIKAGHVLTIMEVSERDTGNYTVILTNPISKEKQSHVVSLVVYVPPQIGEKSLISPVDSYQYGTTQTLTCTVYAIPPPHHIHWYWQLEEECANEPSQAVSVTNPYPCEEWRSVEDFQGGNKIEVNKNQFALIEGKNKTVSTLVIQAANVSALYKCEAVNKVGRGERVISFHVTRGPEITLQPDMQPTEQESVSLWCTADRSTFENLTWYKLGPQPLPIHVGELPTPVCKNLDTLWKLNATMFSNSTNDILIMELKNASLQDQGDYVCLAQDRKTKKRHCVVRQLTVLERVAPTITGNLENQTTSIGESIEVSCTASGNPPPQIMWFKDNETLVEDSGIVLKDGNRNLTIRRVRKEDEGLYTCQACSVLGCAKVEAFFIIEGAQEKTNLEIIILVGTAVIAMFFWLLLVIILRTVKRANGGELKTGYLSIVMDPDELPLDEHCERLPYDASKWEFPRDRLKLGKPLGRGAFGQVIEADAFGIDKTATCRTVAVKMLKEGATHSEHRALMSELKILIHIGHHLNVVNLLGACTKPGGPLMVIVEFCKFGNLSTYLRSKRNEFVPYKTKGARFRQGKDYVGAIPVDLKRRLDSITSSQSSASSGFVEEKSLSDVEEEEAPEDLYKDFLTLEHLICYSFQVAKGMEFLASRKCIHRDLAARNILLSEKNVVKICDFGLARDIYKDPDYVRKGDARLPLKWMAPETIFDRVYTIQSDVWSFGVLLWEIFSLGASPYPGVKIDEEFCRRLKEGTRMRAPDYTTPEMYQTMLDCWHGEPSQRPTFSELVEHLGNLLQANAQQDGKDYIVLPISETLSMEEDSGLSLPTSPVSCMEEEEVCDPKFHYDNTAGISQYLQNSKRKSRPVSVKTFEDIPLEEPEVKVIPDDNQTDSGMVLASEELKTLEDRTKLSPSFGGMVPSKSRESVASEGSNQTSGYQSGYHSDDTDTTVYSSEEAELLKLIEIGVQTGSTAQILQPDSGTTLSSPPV

[21] = test system: UO-31; assay: Induction of apoptosis in human UO-31 cells assessed as increase in caspase-3 level by measuring optical density by Western blot densitometry analysis (reference value: 0.095); assay type: functional
[22] = test system: HUVEC; assay: Cytotoxicity against HUVEC cells assessed as effect on cell morphology at 10 ug/ml measured after 72 hrs; assay type: toxicity, cell-based; details: human, dose 10 µg/ml
[23] = test system: EKVX; assay: Cytotoxicity against human EKVX cells assessed as growth inhibition at 10 uM relative to control; assay type: functional; details: read-out: GI
[24] = test system: SK-OV-3; assay: Cytotoxicity against human SK-OV-3 cells assessed as growth inhibition at 10 uM relative to control; assay type: functional; details: read-out: GI
[25] = test system: SW-620; assay: Cytotoxicity against human SW-620 cells assessed as growth inhibition at 10 uM relative to control; assay type: functional; details: read-out: GI
[26] = test system: HOP-62; assay: Cytotoxicity against human HOP-62 cells assessed as growth inhibition at 10 uM relative to control; assay type: functional; details: read-out: GI
[27] = test system: SF-539; assay: Cytotoxicity against human SF-539 cells assessed as growth inhibition at 10 uM relative to control; assay type: functional; details: read-out: GI
[28] = test system: T47D; assay: Cytotoxicity against human T47D cells assessed as growth inhibition at 10 uM relative to control; assay type: functional; details: read-out: GI
[29] = test system: NCI-H226; assay: Cytotoxicity against human NCI-H226 cells assessed as growth inhibition at 10 uM relative to control; assay type: functional; details: read-out: GI
[30] = test system: SNB-75; assay: cells; details: Homo sapiens, SNB-75, 24 h
[31] = test system: UACC-257; assay: Cytotoxicity against human UACC-257 cells assessed as growth inhibition at 10 uM relative to control; assay type: functional; details: read-out: GI
[32] = test system: Malme-3M; assay: Cytotoxicity against human Malme-3M cells assessed as growth inhibition at 10 uM relative to control; assay type: functional; details: read-out: GI
[33] = test system: MDA-MB-231; assay: Cytotoxicity against human MDA-MB-231 cells assessed as growth inhibition at 10 uM relative to control; assay type: functional; details: read-out: GI
[34] = test system: ACHN; assay: Cytotoxicity against human ACHN cells assessed as growth inhibition at 10 uM relative to control; assay type: functional; details: read-out: GI

Structure (SMILES): O=c1c2cc(Cl)cc(Cl)c2[nH]c(=S)n1-c1ccc(S(=O)(=O)Nc2ccc(Cl)nn2)cc1
- IC50 [1]: 20 µM
- inhibition of growth at 10 µM [2]: 11%
- inhibition of growth at 10 µM [3]: 19%
- IC50 [4]: 40.9 µM
- inhibition of growth at 10 µM [5]: 10%
- inhibition of growth at 10 µM [6]: 21%
- inhibition of growth at 10 µM [7]: 78%
- inhibition of growth at 10 µM [8]: 12%
- inhibition of growth at 10 µM [9]: 48%

Structure (SMILES): COc1cc2[nH]c(=S)n(-c3ccc(S(=O)(=O)Nc4ccc(Cl)nn4)cc3)c(=O)c2cc1OC
- inhibition of growth at 10 µM [2]: 10%
- inhibition of growth at 10 µM [3]: 16%
- inhibition of growth at 10 µM [10]: 10%
- inhibition of growth at 10 µM [9]: 11%

Structure (SMILES): O=c1c2ccccc2[nH]c(=S)n1-c1ccc(S(=O)(=O)Nc2ccc(Cl)nn2)cc1
- inhibition of growth at 10 µM [2]: 10%
- inhibition of growth at 10 µM [3]: 17%
- inhibition of growth at 10 µM [5]: 11%

Structure (SMILES): O=C(CSc1nc2ccccc2c(=O)n1-c1ccc(S(=O)(=O)Nc2ccc(Cl)nn2)cc1)NC1CCCCC1
- inhibition of growth at 10 µM [11]: 10%
- inhibition of growth at 10 µM [5]: 11%
- inhibition of growth at 10 µM [12]: 10%
- inhibition of growth at 10 µM [13]: 11%
- inhibition of growth at 10 µM [14]: 10%
- inhibition of growth at 10 µM [10]: 16%
- inhibition of growth at 10 µM [8]: 11%

Structure (SMILES): Cc1ccc2[nH]c(=S)n(-c3ccc(S(=O)(=O)Nc4ccc(Cl)nn4)cc3)c(=O)c2c1
- IC50 [1]: 28 µM
- inhibition of growth at 10 µM [2]: 10%
- inhibition of growth at 10 µM [3]: 15%
- IC50 [4]: 12.8 µM
- inhibition of growth at 10 µM [6]: 39%
- inhibition of growth at 10 µM [15]: 17%
- inhibition of growth at 10 µM [7]: 100%
- inhibition of growth at 10 µM [9]: 60%

Structure (SMILES): CCCCNC(=O)CSc1nc2ccccc2c(=O)n1-c1ccc(S(=O)(=O)Nc2ccc(Cl)nn2)cc1
- inhibition of growth at 10 µM [3]: 12%
- inhibition of growth at 10 µM [8]: 25%

Structure (SMILES): NS(=O)(=O)c1ccc(NC(=O)CSc2nc3ccccc3c(=O)n2-c2ccc(S(=O)(=O)Nc3ccc(Cl)nn3)cc2)cc1
- inhibition of growth at 10 µM [11]: 13%
- inhibition of growth at 10 µM [2]: 12%
- inhibition of growth at 10 µM [3]: 10%
- inhibition of growth at 10 µM [14]: 14%
- inhibition of growth at 10 µM [10]: 27%

Structure (SMILES): O=c1c2cc3ccccc3cc2[nH]c(=S)n1-c1ccc(S(=O)(=O)Nc2ccc(Cl)nn2)cc1
- inhibition of growth at 10 µM [2]: 10%
- inhibition of growth at 10 µM [3]: 18%
- inhibition of growth at 10 µM [5]: 10%
- inhibition of growth at 10 µM [16]: 12%
- inhibition of growth at 10 µM [17]: 11%

Structure (SMILES): CNC(=O)CSc1nc2ccccc2c(=O)n1-c1ccc(S(=O)(=O)Nc2ccc(Cl)nn2)cc1
- inhibition of growth at 10 µM [16]: 24%

Structure (SMILES): O=C(CSc1nc2ccccc2c(=O)n1-c1ccc(S(=O)(=O)Nc2ccc(Cl)nn2)cc1)Nc1ccc(S(=O)(=O)Nc2ccc(Cl)nn2)cc1
- inhibition of growth at 10 µM [18]: 13%
- inhibition of growth at 10 µM [19]: 12%
- inhibition of growth at 10 µM [3]: 12%
- inhibition of growth at 10 µM [16]: 10%

Structure (SMILES): O=C(CSc1nc2ccccc2c(=O)n1CCc1ccccc1)Nc1ccc(S(=O)(=O)Nc2ccc(Cl)nn2)cc1
- IC50 [20]: 0.066 µM
- OD [21]: 0.772
- Activity [22]: Non-Toxic

Structure (SMILES): Cn1c(SCC(=O)Nc2ccc(S(=O)(=O)Nc3ccc(Cl)nn3)cc2)nc2ccccc2c1=O
- inhibition of growth at 10 µM [3]: 12%
- inhibition of growth at 10 µM [13]: 17%
- inhibition of growth at 10 µM [15]: 17%
- inhibition of growth at 10 µM [23]: 10%
- inhibition of growth at 10 µM [8]: 19%

Structure (SMILES): O=c1c2cccc(Br)c2[nH]c(=S)n1-c1ccc(S(=O)(=O)Nc2ccc(Cl)nn2)cc1
- inhibition of growth at 10 µM [2]: 13%
- inhibition of growth at 10 µM [3]: 20%
- inhibition of growth at 10 µM [5]: 12%
- inhibition of growth at 10 µM [10]: 11%

Structure (SMILES): O=C(CSc1nc2ccccc2c(=O)n1-c1ccc(Cl)c(Cl)c1)Nc1ccc(S(=O)(=O)Nc2ccc(Cl)nn2)cc1
- inhibition of growth at 10 µM [24]: 11%
- inhibition of growth at 10 µM [25]: 10%
- inhibition of growth at 10 µM [2]: 18%
- inhibition of growth at 10 µM [3]: 20%
- inhibition of growth at 10 µM [26]: 12%
- inhibition of growth at 10 µM [5]: 10%
- inhibition of growth at 10 µM [13]: 28%
- inhibition of growth at 10 µM [27]: 10%
- inhibition of growth at 10 µM [14]: 15%
- inhibition of growth at 10 µM [10]: 31%
- inhibition of growth at 10 µM [7]: 14%
- inhibition of growth at 10 µM [28]: 14%

Structure (SMILES): O=C(CSc1nc2ccccc2c(=O)n1-c1ccccc1)Nc1ccc(S(=O)(=O)Nc2ccc(Cl)nn2)cc1
- inhibition of growth at 10 µM [29]: 10%
- inhibition of growth at 10 µM [3]: 21%
- IC50 [30]: 47.5 µM
- inhibition of growth at 10 µM [13]: 11%
- inhibition of growth at 10 µM [31]: 12%
- inhibition of growth at 10 µM [10]: 27%

Structure (SMILES): O=C(CSc1nc2ccccc2c(=O)n1C1CCCCC1)Nc1ccc(S(=O)(=O)Nc2ccc(Cl)nn2)cc1
- inhibition of growth at 10 µM [2]: 14%
- inhibition of growth at 10 µM [3]: 21%
- inhibition of growth at 10 µM [32]: 10%
- inhibition of growth at 10 µM [13]: 25%
- inhibition of growth at 10 µM [10]: 16%
- inhibition of growth at 10 µM [28]: 12%

Structure (SMILES): CCn1c(SCC(=O)Nc2ccc(S(=O)(=O)Nc3ccc(Cl)nn3)cc2)nc2ccccc2c1=O
- inhibition of growth at 10 µM [18]: 12%
- inhibition of growth at 10 µM [3]: 12%
- inhibition of growth at 10 µM [8]: 10%

Structure (SMILES): O=C(CSc1nc2ccccc2c(=O)n1Cc1ccccc1)Nc1ccc(S(=O)(=O)Nc2ccc(Cl)nn2)cc1
- inhibition of growth at 10 µM [18]: 10%
- inhibition of growth at 10 µM [2]: 13%
- inhibition of growth at 10 µM [29]: 12%
- inhibition of growth at 10 µM [3]: 21%
- inhibition of growth at 10 µM [26]: 11%
- inhibition of growth at 10 µM [33]: 13%
- inhibition of growth at 10 µM [34]: 10%
- inhibition of growth at 10 µM [17]: 13%
